From US8846711B2, “Heterocyclic acrylamides and their use as pharmaceuticals” (Fab Pharma S.A.S., priority 2009, dated 2014)
pIC50: −log10 of the molar value. ≈ marks a conversion by molar mass, not a printed value.

Tests used:
[1] = molecular target: recombinant S. aureus FabI enzyme (Staphylococcus aureus (strain MRSA252), UniProt Q6GI75); experiment: FabI inhibition, fluorescence based assay; type: biochemical; details: in vitro
Procedure: Compound inhibitory activity of FabI enzyme is measured in vitro by the […] determination using a fluorescence based assay.
The protein FabI from S. aureus is prepared and purified using standard methods for recombinant protein expression after cloning of the gene in a prokaryotic expression vector.
The biochemical activity of the FabI enzyme is assessed using the following method.
The assay buffer “AB” contained 50 mM ADA (N-(2-acetamido)iminodiacetic acid monosodium salt) pH 6.5, 1 mM dithiothreitol, 0.006% Triton-X100 and 50 mM NaCl.
The following components are added in a white polystyrene Costar plate (Ref 3912) up to a final volume of 55.5 μL: 1.5 μL DMSO or inhibitor dissolved in DMSO and 54 μL of a FabI/NADPH/NADP+ mixture in AB. After 60 min of pre-incubation at room temperature, the reaction is started by addition of 5 μL of trans-2-octenoyl N-acetylcysteamine thioester (t-o-NAC) to a final volume of 60.5 μL. This reaction mixture is then composed of 2 nM FabI, 40 μM NADPH (Sigma, N7505), 10 μM NADP+ (Sigma, N5755), 100 μM t-O-NAC and compound at defined concentration. Fluorescence intensity of NADPH (λex=360 nm, […]) is measured immediately after t-O-NAC addition (T0), and approximately 50 min later (T50) by a Fluostar Optima (BMG) so as to achieve ±30% of NADPH conversion. Enzyme activity is calculated by first subtracting TO signal to T50 and then subtracting background signal (FabI=0). Percentages of inhibition are calculated against untreated samples (Inhibitor=0) and IC50 are fitted to a classical Langmuir equilibrium model using XLFIT (IDBS).

C. albicans (ATCC 90028) = experiment: MIC determination using susceptibility method (broth microdilution); type: cell-based; details: Candida albicans, ATCC90028, read-out: MIC (μg/ml) C. albicans (ATCC 90028)
Procedure: (§1) Minimum inhibitory concentrations (MICs) were determined by broth microdilution according to CLSI guidelines (CLSI, M100-20^1, M7-A8^2, M27-A3^3). The compounds were tested in the range from […]. Colonies were taken directly from a second-pass culture plate and prepared to a suspension equivalent to the 0.5 McFarland standard using normal saline. […] The panels were incubated at 35° C. for 16 to 20 hours before reading the MIC endpoints. The compounds of Examples 12, 29, 59, 63 and 66-71 were dissolved in DMSO to make the initial solutions of 5120 μg/ml. These solutions were diluted 1:10 in sterile water to a stock solution of 512 μg/ml. The stock solutions were further diluted into the appropriate broth medium for the sequential dilutions used in the broth microdilution panels. S. pneumoniae was tested in Mueller Hinton (MH) broth with 3% lysed horse blood and C. albicans was tested in RPMI-1640 medium. All other organisms were tested in MH broth.

E. coli (ATCC 25922) = experiment: as above; type: cell-based; details: Escherichia coli, ATCC25922, read-out: MIC (μg/ml) E. coli (ATCC 25922)
Procedure: as §1

E. faecalis (ATCC 29212) = experiment: as above; type: cell-based; details: Enterococcus faecalis, ATCC29212, read-out: MIC (μg/ml) E. faecalis (ATCC 29212)
Procedure: as §1

MRSA (IHMA #510059) = experiment: as above; type: cell-based; details: Staphylococcus aureus, read-out: MIC (μg/ml) MRSA (IHMA #510059)
Procedure: as §1

MSSA (IHMA #555189) = experiment: as above; type: cell-based; details: Staphylococcus aureus, read-out: MIC (μg/ml) MSSA (IHMA #555189)
Procedure: as §1

S. aureus ATCC 29213 = experiment: as above; type: cell-based; details: Staphylococcus aureus, ATCC29213, read-out: MIC (μg/ml) S. aureus ATCC 29213
Procedure: as §1

[2] = tested on: S. pneumoniae (ATCC 49619); experiment: as above; type: cell-based; details: Streptococcus pneumoniae, ATCC49619, read-out: MIC (μg/ml) S. pneumoniae (ATCC 49619)
Procedure: as §1

Row | SMILES | pIC50 [1] | other results
1 | CC(Cc1ncccn1)=NOC1CN(C(=O)/C=C/c2cnc3c(c2)CCC(=O)N3)C1 (racemic) [Example 21, 6-{(1E)-3-[3-({[(1E)-1-Methyl-2-pyrimidin-2-ylethylidene]amino}oxy)azetidin-1-yl]-3-oxoprop-1-en-1-yl}-3,4-dihydro-1,8-naphthyridin-2(1H)-one] | 6.06 | –
2 | O=C1CCc2cc(/C=C/C(=O)N3CCC3)cnc2N1 [Example 1, 6-[(1E)-3-Azetidin-1-yl-3-oxoprop-1-en-1-yl]-3,4-dihydro-1,8-naphthyridin-2(1H)-one] | 4.96 | –
3 | O=C1CCc2cc(/C=C/C(=O)N3CCCC3)cnc2N1 [Example 2, 6-[(1E)-3-Oxo-3-pyrrolidin-1-ylprop-1-en-1-yl]-3,4-dihydro-1,8-naphthyridin-2(1H)-one] | 5.26 | –
4 | O=C1CCc2cc(/C=C/C(=O)N3CCCCC3)cnc2N1 [Example 3, 6-[(1E)-3-Oxo-3-piperidin-1-ylprop-1-en-1-yl]-3,4-dihydro-1,8-naphthyridin-2(1H)-one] | 5.00 | –
5 | O=C1CCc2cc(/C=C/C(=O)N3CCC(CCO)CC3)cnc2N1 [Example 4, 6-{(1E)-3-[4-(2-Hydroxyethyl)piperidin-1-yl]-3-oxoprop-1-en-1-yl}-3,4-dihydro-1,8-naphthyridin-2(1H)-one] | 5.28 | –
6 | O=C1CCc2cc(/C=C/C(=O)N3CCC(COc4ccc(F)cc4)CC3)cnc2N1 [Example 5, 6-[(1E)-3-{[4-(4-Fluorophenoxy)methyl]piperidin-1-yl}-3-oxoprop-1-en-1-yl]-3,4-dihydro-1,8-naphthyridin-2(1H)-one] | 6.60 | –
7 | O=C1CCc2cc(/C=C/C(=O)N3CC(Oc4ccccc4)C3)cnc2N1 [Example 6, 6-[(1E)-3-Oxo-3-(3-phenoxyazetidin-1-yl)prop-1-en-1-yl]-3,4-dihydro-1,8-naphthyridin-2(1H)-one] | 6.00 | –
8 | O=C1CCc2cc(/C=C/C(=O)N3CCCC3c3ccccc3)cnc2N1 (stereo not shown) [Example 7, 6-[(1E)-3-Oxo-3-(2-phenylpyrrolidin-1-yl)prop-1-en-1-yl]-3,4-dihydro-1,8-naphthyridin-2(1H)-one] | 5.15 | –
9 | O=C1CCc2cc(/C=C/C(=O)N3CCCC(COc4ccc(F)cc4)C3)cnc2N1 (stereo not shown) [Example 9, 6-[(1E)-3-{[3-(4-Fluorophenoxy)methyl]piperidin-1-yl}-3-oxoprop-1-en-1-yl]-3,4-dihydro-1,8-naphthyridin-2(1H)-one] | 5.89 | –
10 | Cc1nc(C2CN(C(=O)/C=C/c3cnc4c(c3)CCC(=O)N4)C2)no1 [Example 11, 6-{(1E)-3-[3-(5-Methyl-1,2,4-oxadiazol-3-yl)azetidin-1-yl]-3-oxoprop-1-en-1-yl}-3,4-dihydro-1,8-naphthyridin-2(1H)-one] | 6.82 | –
11 | Cc1nc(C2CCCCN2C(=O)/C=C/c2cnc3c(c2)CCC(=O)N3)no1 (stereo not shown) [Example 13, 6-{(1E)-3-[2-(5-Methyl-1,2,4-oxadiazol-3-yl)piperidin-1-yl]-3-oxoprop-1-en-1-yl}-3,4-dihydro-1,8-naphthyridin-2(1H)-one] | 5.39 | –
12 | O=C1CCc2cc(/C=C/C(=O)N3CCC(O)(c4ccccc4)CC3)cnc2N1 [Example 14, 6-{(1E)-3-[4-Hydroxy-4-phenylpiperidin-1-yl]-3-oxoprop-1-en-1-yl}-3,4-dihydro-1,8-naphthyridin-2(1H)-one] | 6.47 | –
13 | O=C1CCc2cc(/C=C/C(=O)N3CCC(Oc4cccnc4)C3)cnc2N1 (stereo not shown) [Example 16, 6-{(1E)-3-Oxo-3-[3-(pyridin-3-yloxy)pyrrolidin-1-yl]prop-1-en-1-yl}-3,4-dihydro-1,8-naphthyridin-2(1H)-one] | 6.03 | –
14 | O=C1CCc2cc(/C=C/C(=O)N3CC(OCc4ccccc4)C3)cnc2N1 [Example 17, 6-{(1E)-3-[3-(Benzyloxy)azetidin-1-yl]-3-oxoprop-1-en-1-yl}-3,4-dihydro-1,8-naphthyridin-2(1H)-one] | 7.30 | –
15 | O=C1CCc2cc(/C=C/C(=O)N3CCCC[C@@H]3c3nc4ccccc4o3)cnc2N1 [Example 18, 6-{(1E)-3-[2-(1,3-Benzoxazol-2-yl)piperidin-1-yl]-3-oxoprop-1-en-1-yl}-3,4-dihydro-1,8-naphthyridin-2(1H)-one] | 5.74 | –
16 | C=C(C)COC1CN(C(=O)/C=C/c2cnc3c(c2)CCC(=O)N3)C1 [Example 19, 6-[(1E)-3-{3-[(2-Methylprop-2-en-1-yl)oxy]azetidin-1-yl}-3-oxoprop-1-en-1-yl]-3,4-dihydro-1,8-naphthyridin-2(1H)-one] | 6.77 | –
17 | O=C1CCc2cc(/C=C/C(=O)N3CC(OCc4nccs4)C3)cnc2N1 [Example 20, 6-{(1E)-3-Oxo-3-[3-(1,3-thiazol-2-ylmethoxy)azetidin-1-yl]prop-1-en-1-yl}-3,4-dihydro-1,8-naphthyridin-2(1H)-one] | 7.24 | –
18 | CCCCCS(=O)(=O)C1CN(C(=O)/C=C/c2cnc3c(c2)CCC(=O)N3)C1 [Example 22, 6-{(1E)-3-[3-(Pentylsulfonyl)azetidin-1-yl]-3-oxoprop-1-en-1-yl}-3,4-dihydro-1,8-naphthyridin-2(1H)-one] | 5.07 | –
19 | Nc1ccc(/C=C/C(=O)N2CC(OCc3ccncc3)C2)cn1 [Example 23, 5-{(1E)-3-Oxo-3-[3-(pyridin-4-ylmethoxy)azetidin-1-yl]prop-1-en-1-yl}pyridin-2-amine] | 5.74 | –
20 | CC(=O)Nc1ccc(/C=C/C(=O)N2CC(OCc3ccncc3)C2)cn1 [Example 24, N-(5-{(1E)-3-Oxo-3-[3-(pyridin-4-ylmethoxy)azetidin-1-yl]prop-1-en-1-yl}pyridin-2-yl)acetamide] | 6.59 | –
21 | COC(=O)C1Cc2cc(/C=C/C(=O)N3CCC(COc4ccc(F)cc4)CC3)cnc2NC1=O (stereo not shown) [Example 25, Methyl 6-[(1E)-3-{4-[(4-fluorophenoxy)methyl]piperidin-1-yl}-3-oxoprop-1-en-1-yl]-2-oxo-1,2,3,4-tetrahydro-1,8-naphthyridine-3-carboxylate] | 7.22 | –
22 | NC(=O)C1Cc2cc(/C=C/C(=O)N3CCC(COc4ccc(F)cc4)CC3)cnc2NC1=O (stereo not shown) [Example 26, 6-[(1E)-3-{4-[(4-Fluorophenoxy)methyl]piperidin-1-yl}-3-oxoprop-1-en-1-yl]-2-oxo-1,2,3,4-tetrahydro-1,8-naphthyridine-3-carboxamide] | 7.11 | –
23 | NC(=O)c1cc2cc(/C=C/C(=O)N3CCC(COc4ccc(F)cc4)CC3)cnc2[nH]c1=O [Example 27, 6-[(1E)-3-{4-[(4-Fluorophenoxy)methyl]piperidin-1-yl}-3-oxoprop-1-en-1-yl]-2-oxo-1,2-dihydro-1,8-naphthyridine-3-carboxamide] | 6.26 | –
24 | O=C1Nc2ncc(/C=C/C(=O)N3CCC(COc4ccc(F)cc4)CC3)cc2CC1CO (stereo not shown) [Example 28, 3-(Hydroxymethyl)-6-[(1E)-3-{4-[(4-fluorophenoxy)methyl]piperidin-1-yl}-3-oxoprop-1-en-1-yl]-3,4-dihydro-1,8-naphthyridin-2(1H)-one] | 7.09 | –
25 | CN1CCC2(CC1)Cc1cc(/C=C/C(=O)N3CC(OCCc4cccs4)C3)cnc1NC2=O [Example 66, (E)-1′-Methyl-6-(3-oxo-3-(3-(2-(thiophen-2-yl)ethoxy)azetidin-1-yl)prop-1-en-1-yl)-1H-spiro[[1,8]naphthyridine-3,4′-piperidin]-2(4H)-one] | – | MIC (C. albicans (ATCC 90028)): 64 µg/mL (≈ 137 µM); MIC (E. coli (ATCC 25922)): 64 µg/mL (≈ 137 µM); MIC (E. faecalis (ATCC 29212)): 64 µg/mL (≈ 137 µM); MIC (MRSA (IHMA #510059)): 0.5 µg/mL (≈ 1.07 µM); MIC (MSSA (IHMA #555189)): 0.25 µg/mL (≈ 0.536 µM); MIC (S. aureus ATCC 29213): 0.25 µg/mL (≈ 0.536 µM); MIC [2]: 64 µg/mL (≈ 137 µM)
